Like-named read-outs stand apart in the source and are kept apart here.

The test system of the assay is leptin production. Description: Enhancing activity for leptin production in adipocytes (ELISA). Format: cell-based, rat. To be noted: leptin concentration as % of control group; for activity at 1 µM / activity at 0.1 µM / activity at 0.001 µM / activity at 0.01 µM: Rattus norvegicus, Adipocyte, read-out: Facilitating activity to produce leptin; for activity at 0.001 µM: 1 nm. Put shortly: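 Leptin release, quantified by rat leptin ELISA, expressed as percent of 0.1% DMSO control after 24 h at 37 °C. Cells were floating adipocytes isolated by collagenase digestion of epididymal fat from male 6-week Wistar Imamichi rats; compound tested at 1 nM–1 µM final.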

With `Cc1ccc(C(=O)Nc2nc3ccc(NC(=O)c4cc([N+](=O)[O-])ccc4Cl)cc3s2)cc1` [Example 149, N-[2-(4-Methylbenzoylamino)benzothiazol-6-yl]-(2-chloro-5-nitrophenyl)carboxamide], the activity at 1 µM (24 h, 1 μM) came out at 117%. In addition, for the setting “24 h, 100 nm”, the activity at 0.1 µM worked out at 111%.
The matching figures for `O=C(Nc1ccc(S(=O)(=O)N2CCCCC2)cc1)c1cc([N+](=O)[O-])ccc1Cl` [Example 151, N-[4-(Piperidyisulfonyl)phenyl]-(2-chloro-5-nitrophenyl)carboxamide]: 113% and 113%.
Consider `O=C(Nc1ccc(S(=O)(=O)N2CCOCC2)cc1)c1cc([N+](=O)[O-])ccc1Cl` [Example 153, N-[4-(Morpholin-4-ylsulfonyl)phenyl]-(2-chloro-5-nitrophenyl)carboxamide], for which, for the setting “24 h, 1 μM”, the activity at 1 µM was determined as 113%.
For the compound `CC(=O)c1ccc(NC(=O)c2cc([N+](=O)[O-])ccc2Cl)cc1` [Example 155, N-(4-Acetylphenyl)-(2-chloro-5-nitrophenyl)carboxamide], for the setting “24 h, 1 μM”, the activity at 1 µM was found to be 114%. Also, the activity at 0.1 µM (24 h, 100 nm) turned out to be 130%.
Turning to `CC(=O)c1cccc(NC(=O)c2cc([N+](=O)[O-])ccc2Cl)c1` [Example 156, N-(3-Acetylphenyl)-(2-chloro-5-nitrophenyl)carboxamide], the activity at 1 µM (24 h, 1 μM) was 112%. Also, the activity at 0.1 µM (24 h, 100 nm) amounted to 118%.
Turning to `CC(C)(C)c1cc(NS(=O)(=O)c2cccc(NC(=O)c3cc([N+](=O)[O-])ccc3Cl)c2)cc(C(C)(C)C)c1O` [Example 161, N-[3-[(3,5-di-tert-Butyl-4-hydroxyphenyl)aminosulfonyl]phenyl]-(2-chloro-5-nitrophenyl)carboxamide], the activity at 1 µM (24 h, 1 μM) was determined as 131%.
`O=C(Nc1ccc(-n2ccnc2)cc1)c1cc([N+](=O)[O-])ccc1Cl` [Example 174, N-[4-(Imidazol-1-yl)phenyl]-(2-chloro-5-nitrophenyl)carboxamide]: where the note is “24 h”, the activity at 0.001 µM was determined as 118%. Also, where the note is “24 h, 10 nm”, the activity at 0.01 µM amounted to 123%. In addition, for the setting “24 h, 100 nm”, the activity at 0.1 µM is 127%.
As to `O=C(Nc1ccc(-c2ccc(N3CCCCC3)cc2)cc1)c1cc([N+](=O)[O-])ccc1Cl` [Example 177, N-[4-[4-(Piperidin-1-yl)phenyl]phenyl]-(2-chloro-5-nitrophenyl)carboxamide], for the setting “24 h, 1 μM”, the activity at 1 µM stood at 145%. The activity at 0.01 µM (24 h, 10 nm) came out at 121%. Where the note is “24 h, 100 nm”, the activity at 0.1 µM came out at 134%.
`CCCN(CCC)c1ccc(NC(=O)c2cc([N+](=O)[O-])ccc2Cl)cc1` [Example 182, N-[4-(N,N-Dipropylamino)phenyl]-(2-chloro-5-nitrophenyl)carboxamide]: the activity at 0.01 µM (24 h, 10 nm) is 110%. Besides, the activity at 0.1 µM (24 h, 100 nm) was 112%.
`O=C(Nc1ccc(N2CCN(C(=O)c3ccccc3)CC2)cc1)c1cc([N+](=O)[O-])ccc1Cl` [Example 184, N-[4-(4-Benzoylpiperazin-1-yl)phenyl]-(2-chloro-5-nitrophenyl)carboxamide]: the activity at 0.01 µM (24 h, 10 nm) was determined as 122%. For the same compound, the activity at 0.1 µM (24 h, 100 nm) is 123%.
On to `CCCCCCN(CC)c1ccc(NC(=O)c2cc([N+](=O)[O-])ccc2Cl)cc1` [Example 188, N-[4-(N-Ethyl-N-hexylamino)phenyl]-(2-chloro-55 nitrophenyl)carboxamide], for which the activity at 0.001 µM (24 h) turned out to be 110%.
In the case of `Nc1ccc(-c2ccc(NC(=O)c3cc([N+](=O)[O-])ccc3Cl)cc2)cc1` [Example 192, N-[4-(4-Aminophenyl)phenyl]-(2-chloro-5-nitrophenyl)carboxamide], the “Facilitating activity to produce leptin” value is, setting by setting: (1 μM, 24 hr) 112.1%; (100 nm, 24 hr) 121.7%. In addition, where the note is “24 h, 10 nm”, the activity at 0.01 µM worked out at 122%.
For the compound `CCCCNc1ccc(-c2ccc(NC(=O)c3cc([N+](=O)[O-])ccc3Cl)cc2)cc1` [Example 203, N-[4-[4-(N-Butylamiino)phenyl]phenyl]-(2-chloro-5-nitrophenyl)carboxamide], the “Facilitating activity to produce leptin” value is, setting by setting: (1 μM, 24 hr) 133.9%; (10 nm, 24 hr) 134.6%; (100 nm, 24 hr) 124.8%.
In the case of `CCCNc1ccc(-c2ccc(NC(=O)c3cc([N+](=O)[O-])ccc3Cl)cc2)cc1` [Example 204, N-[4-[4-(N-Propylamino)phenyl]phenyl]-(2-chloro-5-nitrophenyl)carboxamide], for the setting “24 h, 1 μM”, the activity at 1 µM is 133%. Also, the activity at 0.01 µM (24 h, 10 nm) stood at 129%. Besides, where the note is “24 h, 100 nm”, the activity at 0.1 µM amounted to 143%.
Take `CCNc1ccc(-c2ccc(NC(=O)c3cc([N+](=O)[O-])ccc3Cl)cc2)cc1` [Example 205, N-[4-[4-(N-Ethylamino)phenyl]phenyl]-(2-chloro-5-nitrophenyl)carboxamide]: under “24 h, 1 μM”, the activity at 1 µM turned out to be 120%. Further, the activity at 0.01 µM (24 h, 10 nm) turned out to be 123%. In addition, the activity at 0.1 µM (24 h, 100 nm) amounted to 123%.
Turning to `CCCCCN(CCCC)c1ccc(-c2ccc(NC(=O)c3cc([N+](=O)[O-])ccc3Cl)cc2)cc1` [Example 206, N-[4-[4-(N-Butyl-N-pentylamino)phenyl]phenyl]-(2-chloro-5-nitrophenyl)carboxamide], the activity at 1 µM (24 h, 1 μM) amounted to 119%. For the same compound, the activity at 0.1 µM (24 h, 100 nm) is 112%.
For the compound `CCCCN(CCCC)c1ccc(-c2ccc(NC(=O)c3cc([N+](=O)[O-])ccc3Cl)cc2)cc1` [Example 207, N-[4-[4-(N,N-Dibutylamino)phenyl]phenyl]-(2-chloro-5-nitrophenyl)carboxamide], the activity at 1 µM (24 h, 1 μM) worked out at 116%. Also, where the note is “24 h, 10 nm”, the activity at 0.01 µM stood at 107%. Under “24 h, 100 nm”, the activity at 0.1 µM worked out at 110%.
In the case of `CCCCN(CCC)c1ccc(-c2ccc(NC(=O)c3cc([N+](=O)[O-])ccc3Cl)cc2)cc1` [Example 208, N-[4-[4-(N-Butyl-N-propylamino)phenyl]phenyl]-(2-chloro-5-nitrophenyl)carboxamide], the activity at 0.1 µM (24 h, 100 nm) came to 111%.
Consider `CCCCN(CC)c1ccc(-c2ccc(NC(=O)c3cc([N+](=O)[O-])ccc3Cl)cc2)cc1` [Example 209, N-[4-[4-(N-Butyl-N-ethylamino)phenyl]phenyl]-(2-chloro-5-nitrophenyl)carboxamide], for which the activity at 1 µM (24 h, 1 μM) worked out at 117%. The activity at 0.1 µM (24 h, 100 nm) turned out to be 111%.
Consider `CCCN(CC)c1ccc(-c2ccc(NC(=O)c3cc([N+](=O)[O-])ccc3Cl)cc2)cc1` [Example 212, N-[4-[4-(N-Ethyl-N-propylamino)phenyl]phenyl]-(2-chloro-5-nitrophenyl)carboxamide], for which the activity at 1 µM (24 h, 1 μM) turned out to be 112%.
Regarding `CCCCCN(CCCCC)c1ccc(-c2ccc(NC(=O)c3cc([N+](=O)[O-])ccc3Cl)cc2)cc1` [Example 214, N-[4-[4-(N,N-Dipentylamino)phenyl]phenyl]-(2-chloro-5-nitrophenyl)carboxamide], the activity at 1 µM (24 h, 1 μM) stood at 125%. In addition, the activity at 0.01 µM (24 h, 10 nm) came to 112%. The activity at 0.1 µM (24 h, 100 nm) came to 125%.
With `CCCCCN(CC)c1ccc(-c2ccc(NC(=O)c3cc([N+](=O)[O-])ccc3Cl)cc2)cc1` [Example 216, N-[4-[4-(N-Ethyl-N-pentylamino)phenyl]phenyl]-(2-chloro-5-nitrophenyl)carboxamide], under “24 h, 1 μM”, the activity at 1 µM worked out at 117%. Besides, where the note is “24 h, 10 nm”, the activity at 0.01 µM turned out to be 113%. Moreover, for the setting “24 h, 100 nm”, the activity at 0.1 µM came out at 112%.
For `CCN(CC)c1ccc(-c2ccc(NC(=O)c3cc([N+](=O)[O-])ccc3Cl)cc2)cc1` [Example 217, N-[4-[4-(N,N-Diethylamino)phenyl]phenyl]-(2-chloro-5-nitrophenyl)carboxamide], where the note is “24 h, 1 μM”, the activity at 1 µM is 121%. Besides, where the note is “24 h, 10 nm”, the activity at 0.01 µM came out at 116%. Further, the activity at 0.1 µM (24 h, 100 nm) came to 117%.
In the case of `O=C(Nc1ccc(-c2ccc(NC(=S)Nc3cccc(F)c3)cc2)cc1)c1cc([N+](=O)[O-])ccc1Cl` [Example 245, N-[4-[4-[(3-Fluorophenyl)aminothiocarbonylamino]phenyl]phenyl]-(2-chloro-5-nitrophenyl)carboxamide], where the note is “24 h, 1 μM”, the activity at 1 µM came out at 111%. Moreover, the activity at 0.01 µM (24 h, 10 nm) was determined as 111%.
Regarding `O=C(Nc1nc(-c2ccc([N+](=O)[O-])cc2)cs1)c1cc([N+](=O)[O-])ccc1Cl` [Example 246, N-[4-(4-Nitrophenyl)thiazol-2-yl]-(2-chloro-5-nitrophenyl)carboxamide], under “10 nm, 24 hr”, the activity at 0.01 µM is 111%. Moreover, where the note is “100 nm, 24 hr”, the activity at 0.1 µM was 113%.
For `CCOC(=O)NC(=S)Nc1ccc(-c2ccc(NC(=O)c3cc([N+](=O)[O-])ccc3Cl)cc2)cc1` [Example 251, N-[4-[4-(Ethoxycarbonylaminothiocarbonylamino)phenyl]phenyl]-(2-chloro-5-nitrophenyl)carboxamide], the activity at 0.01 µM (24 h, 10 nm) was 111%. Further, the activity at 0.1 µM (24 h, 100 nm) was determined as 107%.
Consider `O=C(Nc1ccc(-c2ccc(NC(=S)Nc3ccccc3)cc2)cc1)c1cc([N+](=O)[O-])ccc1Cl` [Example 252, N-[4-[4-(Phenylaminothiocarbonylamino)phenyl]phenyl]-(2-chloro-5-nitrophenyl)carboxamide], for which the activity at 1 µM (24 h, 1 μM) stood at 108%. Where the note is “24 h, 10 nm”, the activity at 0.01 µM worked out at 110%. In addition, for the setting “24 h, 100 nm”, the activity at 0.1 µM was determined as 113%.
For the compound `O=C(Nc1ccc(-c2ccc(NC(=O)c3cc([N+](=O)[O-])ccc3Cl)cc2)cc1)Nc1ccccc1[N+](=O)[O-]` [Example 254, N-[4-[4-(2-Nitrophenylaminocarbonylamino)phenyl]phenyl]-(2-chloro-5-nitrophenyl)carboxamide], the activity at 1 µM (1 μM, 24 hr) came out at 109%. Also, where the note is “10 nm, 24 hr”, the activity at 0.01 µM is 111%. Also, where the note is “100 nm, 24 hr”, the activity at 0.1 µM amounted to 106%.

Source of the values: US20030134859A1 (SANKYO COMPANY, LIMITED, priority 2000, published 2003).
